*1 amine or outer side, *2 acyl side, *3 side chain or, on linkers, in order; H or OH if unused. Where a SMILES comes first, the peptide text is derived from it. Side-chain parts run from the residue outwards. [ ]: non-standard residue; d: D form. The star is where a group is joined. Tetrahydroisoquinolin(2-yl) = c1ccc2c(c1)CCN(*)C2; Ac3c(1R,2S-2-vinyl) = C=C[C@@H]1C[C@]1(N)C(=O)O; Hyp = O=C(O)[C@@H]1C[C@@H](O)CN1; Chg = N[C@H](C(=O)O)C1CCCCC1; CO = O=C([*:1])[*:2]

One experiment concerns Hepatitis C virus. Kind of experiment: Antiviral activity against Hepatitis C virus infected in human HuH7 cells assessed as inhibition of HCV subgenomic replicon replication after 72 hrs by ELISA. The format is functional, organism-based, Hepacivirus hominis, Huh-7. (Replicon systems follow genome replication, usually without infectious particles.)
Experiment [1] in a line: Inhibition of Hepatitis C virus full-length NS3/4A protease assessed as quenched-fluorogenic RET-S1 substrate cleavage incubated for 10 mins prior to substrate addition by FRET analysis. Also noted: species or system Hepacivirus hominis.
[2] abbreviates: Hepatitis C virus, Huh-7, 72 h, read-out: EC50.

One may read the EC50 as the concentration giving half of the maximal effect. What is called IC50 is the midpoint of a concentration-inhibition curve. Regarding `CC(C)(C)OC(=O)N[C@H]1CCCCC/C=C\[C@@H]2C[C@@]2(C(=O)NS(=O)(=O)C2CC2)NC(=O)[C@@H]2C[C@@H](OC(=O)N3Cc4ccccc4C(O)C3)CN2C1=O` (some centres undefined), in the experiment on Hepatitis C virus (setting [2]), the EC50 stood at 718 nM. The IC50 in experiment [1] came out at 2.2 nM.

On to `CC(C)(C)OC(=O)N[C@H]1CCCCC/C=C\[C@@H]2C[C@@]2(C(=O)NS(=O)(=O)C(C)(C)C)NC(=O)[C@@H]2C[C@@H](OC(=O)N3Cc4ccccc4C3)CN2C1=O`, for which the EC50 in the experiment on Hepatitis C virus (setting [2]) was 194 nM. Moreover, in experiment [1], the 50% inhibitory concentration (IC50) amounted to 37 nM.

As for `CC(C)(C)OC(=O)N[C@H]1CCC(F)(F)CC/C=C\[C@@H]2C[C@@]2(C(=O)NS(=O)(=O)C2CC2)NC(=O)[C@@H]2C[C@@H](OC(=O)N3Cc4cccc(F)c4C3)CN2C1=O`, the EC50 with Hepatitis C virus (setting [2]) was 7.2 nM. Moreover, the IC50 in experiment [1] worked out at 1.5 nM.

For the compound `CN(C)c1ccc(S(=O)(=O)NC(=O)[C@@]23C[C@H]2/C=C\CCCCC[C@H](NC(=O)OC(C)(C)C)C(=O)N2C[C@H](OC(=O)N4Cc5ccccc5C4)C[C@H]2C(=O)N3)cc1`, the EC50 in the experiment with Hepatitis C virus (setting [2]) turned out to be 45 nM. For the same compound, the IC50 in experiment [1] is 11 nM.

On to `CC(C)(C)OC(=O)N[C@H]1CCCCC/C=C\[C@@H]2C[C@@]2(C(=O)NS(=O)(=O)C2CC2)NC(=O)[C@@H]2C[C@@H](OC(=O)N3Cc4ccc(F)cc4C3)CN2C1=O`, for which the EC50 in the experiment with Hepatitis C virus (setting [2]) is 4 nM. Further, the IC50 in experiment [1] stood at 3 nM.

As to `CC(C)Nc1ccc2c(c1)CN(C(=O)O[C@@H]1C[C@H]3C(=O)N[C@]4(C(=O)NS(=O)(=O)C5CC5)C[C@H]4/C=C\CCCCC[C@H](NC(=O)OC(C)(C)C)C(=O)N3C1)C2`, the EC50 in the experiment with Hepatitis C virus (setting [2]) was 11 nM. For the same compound, in experiment [1], the IC50 came to 4.3 nM.

Consider `CN(C)c1cccc2c1CCN(C(=O)O[C@@H]1C[C@H]3C(=O)N[C@]4(C(=O)NS(=O)(=O)C5CC5)C[C@H]4/C=C\CCCCC[C@H](NC(=O)OC(C)(C)C)C(=O)N3C1)C2`, for which the EC50 in the experiment on Hepatitis C virus (setting [2]) was 20 nM. The half-maximal inhibitory concentration (IC50) in experiment [1] is 2.4 nM.

Turning to `CC(C)(C)OC(=O)N[C@H]1CCCCC/C=C\[C@@H]2C[C@@]2(C(=O)NS(=O)(=O)C2CC2)NC(=O)[C@@H]2C[C@@H](O)CN2C1=O`, in the experiment on Hepatitis C virus (setting [2]), the EC50 is 2130 nM. In addition, the IC50 in experiment [1] is 75 nM.

For `CC(C)(C)OC(=O)N[C@H]1CCCCC/C=C\[C@@H]2C[C@@]2(C(=O)NS(=O)(=O)C2CC2)NC(=O)[C@@H]2C[C@@H](OC(=O)N3Cc4ccc(C#N)cc4C3)CN2C1=O`, the EC50 with Hepatitis C virus (setting [2]) stood at 112 nM. Also, in experiment [1], the IC50 amounted to 2.5 nM.

Consider `CC(C)(C)OC(=O)N[C@H]1CCCCC/C=C\[C@@H]2C[C@@]2(C(=O)NS(=O)(=O)C2(C)CC2)NC(=O)[C@@H]2C[C@@H](OC(=O)N3Cc4ccccc4C3)CN2C1=O`, for which, in the experiment with Hepatitis C virus (setting [2]), the EC50 is 3.1 nM. Also, the IC50 in experiment [1] was determined as 0.5 nM.

Take `C=C[C@@H]1C[C@]1(NC(=O)[C@@H]1C[C@@H](OC(=O)N2CCc3ccccc3C2)CN1C(=O)[C@@H](NC(=O)[C@@H](NC(C)=O)C1CCCCC1)C(C)C)C(=O)O` (Ac-[Chg]V[Hyp]([CO-Tetrahydroisoquinolin(2-yl)])[Ac3c(1R,2S-2-vinyl)]-OH): the EC50 in the experiment with Hepatitis C virus (setting [2]) is more than 10000 nM. The IC50 in experiment [1] came to 210 nM.

For the compound `CC(C)(C)OC(=O)N[C@H]1CCCCC/C=C\[C@@H]2C[C@@]2(C(=O)NS(=O)(=O)C2CC2)NC(=O)[C@@H]2C[C@@H](NC(=O)N3CCc4ccccc4C3)CN2C1=O`, the EC50 with Hepatitis C virus (setting [2]) came to 362 nM. Moreover, the IC50 in experiment [1] turned out to be 2.9 nM.

For `CC(C)(C)OC(=O)N[C@H]1CCCCC/C=C\[C@@H]2C[C@@]2(C(=O)NS(=O)(=O)C2CC2)NC(=O)[C@@H]2C[C@@H](NC(=S)N3CCc4ccccc4C3)CN2C1=O`, the EC50 in the experiment with Hepatitis C virus (setting [2]) came to 365 nM. Also, the IC50 in experiment [1] came out at 8.2 nM.

Consider `CC(C)(C)OC(=O)N[C@H]1CCC(F)(F)CCCC[C@@H]2C[C@@]2(C(=O)NS(=O)(=O)C2CC2)NC(=O)[C@@H]2C[C@@H](OC(=O)N3Cc4cccc(F)c4C3)CN2C1=O`, for which the EC50 in the experiment on Hepatitis C virus (setting [2]) worked out at 6.8 nM. Besides, the IC50 in experiment [1] was determined as 0.8 nM.

On to `CC(C)(C)OC(=O)N[C@H]1CCCCC/C=C\[C@@H]2C[C@@]2(C(=O)NS(=O)(=O)C2CC2)NC(=O)[C@@H]2C[C@@H](OC(=O)N3Cc4cccc(Cl)c4C3)CN2C1=O`, for which the EC50 in the experiment on Hepatitis C virus (setting [2]) is 2.2 nM. In addition, the IC50 in experiment [1] worked out at 3 nM.

As to `O=C(N[C@H]1CCCCC/C=C\[C@@H]2C[C@@]2(C(=O)NS(=O)(=O)C2CC2)NC(=O)[C@@H]2C[C@@H](OC(=O)N3CCc4ccccc4C3)CN2C1=O)OC1CCCC1`, the concentration giving a half-maximal response (EC50) in the experiment on Hepatitis C virus (setting [2]) was determined as 6 nM. In addition, the half-inhibitory concentration (IC50) in experiment [1] stood at 1 nM.

Turning to `CC(C)(C)OC(=O)N[C@H]1CCCCC/C=C\[C@@H]2C[C@@]2(C(=O)O)NC(=O)[C@@H]2C[C@@H](O)CN2C1=O`, the EC50 result with Hepatitis C virus (huh-7) was “Not Active”. The IC50 in experiment [1] is more than 50000 nM.

With `CC(C)(C)OC(=O)N[C@H]1CCCCC/C=C\[C@@H]2C[C@@]2(C(=O)NS(=O)(=O)C2CC2)NC(=O)[C@@H]2C[C@@H](OC(=O)N3Cc4ccc(N5CCOCC5)cc4C3)CN2C1=O`, in the experiment on Hepatitis C virus (setting [2]), the EC50 was determined as 45 nM. Moreover, the IC50 in experiment [1] came to 0.8 nM.

For `CC(C)(C)OC(=O)N[C@H]1CCCCC/C=C\[C@@H]2C[C@@]2(C(=O)NS(=O)(=O)C2CC2)NC(=O)[C@@H]2C[C@@H](OC(=O)N3CCc4c(F)ccc(F)c4C3)CN2C1=O`, the EC50 in the experiment on Hepatitis C virus (setting [2]) was 24 nM. In experiment [1], the IC50 was 1.2 nM.

Take `CC(C)(C)OC(=O)N[C@H]1CCCOC/C=C\[C@@H]2C[C@@]2(C(=O)NS(=O)(=O)C2CC2)NC(=O)[C@@H]2C[C@@H](OC(=O)N3Cc4cccc(F)c4C3)CN2C1=O`: in the experiment with Hepatitis C virus (setting [2]), the EC50 amounted to 155 nM. Further, the IC50 in experiment [1] came out at 0.8 nM.

`CC(C)(C)OC(=O)N[C@H]1CCCCC/C=C\[C@@H]2C[C@@]2(C(=O)NS(=O)(=O)C2CC2)NC(=O)[C@@H]2C[C@@H](NC(=O)c3cc4ccccc4s3)CN2C1=O`: the EC50 with Hepatitis C virus (setting [2]) is 21 nM. For the same compound, the IC50 in experiment [1] stood at 1.4 nM.

In the case of `CC(C)(C)OC(=O)N[C@H]1CCCCC/C=C\[C@@H]2C[C@@]2(C(=O)NS(=O)(=O)N2CCNCC2)NC(=O)[C@@H]2C[C@@H](OC(=O)N3Cc4ccccc4C3)CN2C1=O`, the EC50 with Hepatitis C virus (setting [2]) was 509 nM. Moreover, in experiment [1], the IC50 turned out to be 22 nM.

With `CC(C)(C)OC(=O)N[C@H]1CCCCC/C=C\[C@@H]2C[C@@]2(C(=O)NS(C)(=O)=O)NC(=O)[C@@H]2C[C@@H](OC(=O)N3Cc4ccccc4C3)CN2C1=O`, the EC50 in the experiment with Hepatitis C virus (setting [2]) was 156 nM. Further, in experiment [1], the half-maximal inhibitory concentration (IC50) amounted to 6.6 nM.

Consider `CC(C)(C)OC(=O)N[C@H]1CCOCC/C=C\[C@@H]2C[C@@]2(C(=O)NS(=O)(=O)C2CC2)NC(=O)[C@@H]2C[C@@H](OC(=O)N3Cc4cccc(F)c4C3)CN2C1=O`, for which the EC50 with Hepatitis C virus (setting [2]) was 33 nM. In addition, in experiment [1], the IC50 is 1.2 nM.

In the case of `CC(C)(C)OC(=O)N[C@H]1CCCC/C=C\[C@@H]2C[C@@]2(C(=O)NS(=O)(=O)C2CC2)NC(=O)[C@@H]2C[C@@H](OC(=O)N3Cc4cccc(F)c4C3)CN2C1=O`, in the experiment on Hepatitis C virus (setting [2]), the concentration for a half-maximal effect (EC50) worked out at 76.6 nM. The IC50 in experiment [1] worked out at 1.5 nM.

Regarding `CC(C)(C)OC(=O)N[C@H]1CCCCC/C=C\[C@@H]2C[C@@]2(C(=O)O)NC(=O)[C@@H]2C[C@@H](OC(=O)N3Cc4ccc(C(F)(F)F)cc4C3)CN2C1=O`, the EC50 with Hepatitis C virus (setting [2]) came out at 7520 nM. Further, the IC50 in experiment [1] is 195 nM.

Turning to `CC(C)(C)OC(=O)N[C@H]1CCCCC/C=C\[C@@H]2C[C@@]2(C(=O)NS(=O)(=O)c2cc(Cl)sc2Cl)NC(=O)[C@@H]2C[C@@H](OC(=O)N3Cc4ccccc4C3)CN2C1=O`, the EC50 in the experiment on Hepatitis C virus (setting [2]) amounted to 32 nM. Also, the 50% inhibitory concentration (IC50) in experiment [1] came out at 0.5 nM.

The values above are taken from ChEMBL document CHEMBL3120136 (J Med Chem, 2014).
